This note sets out measurements from patent US11866430B2, “Naphthyridinone compounds useful as T cell activators” (priority 2018, dated 2024).

A value given as a limit tells only on which side of the number the result lay.

Assay [1] addresses T1, human DGKζ (Homo sapiens (Human), UniProt Q13574). The assay can be described thus: DGKζ assay (detergent/lipid micelle substrate). It counts as biochemical. The method in brief: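 Full-length human DGKζ (and DGKα), C-terminal His-tagged, Sf9-expressed, with phosphatidylserine/DAG micelles in 50 mM octyl glucoside; buffer 50 mM MOPS pH 7.5, 100 mM NaCl, 10 mM MgCl2, 1 μM CaCl2, 1 mM DTT.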

For assay [2], the target named is T1, human DGKζ. The assay can be described thus: DGKζ LIPGLO assay (extruded liposome substrate). The format is biochemical. In a few lines: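 Recombinant DGKζ (Sf9-expressed, Ni/SEC/SP-purified) preincubated 10 min with extruded 100 nm PC/DAG/PS liposomes in 50 mM MOPS pH 7.5, 100 mM NaCl, 10 mM MgCl2, 1 μM CaCl2, 1 mM DTT. Started with 300 uM ATP solution (stock, pre-addition); 1 hr reaction. ADP-Glo luminescence; IC50 from 11 concentrations.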

Setting [3] is: detergent/lipid micelle substrate, read-out: DGKζ IC50.
[4] abbreviates: extruded liposome substrate, read-out: DGKζ LIPGLO IC50.

T1 sequence (Q13574 other isoform, or with tags, fused parts or gaps): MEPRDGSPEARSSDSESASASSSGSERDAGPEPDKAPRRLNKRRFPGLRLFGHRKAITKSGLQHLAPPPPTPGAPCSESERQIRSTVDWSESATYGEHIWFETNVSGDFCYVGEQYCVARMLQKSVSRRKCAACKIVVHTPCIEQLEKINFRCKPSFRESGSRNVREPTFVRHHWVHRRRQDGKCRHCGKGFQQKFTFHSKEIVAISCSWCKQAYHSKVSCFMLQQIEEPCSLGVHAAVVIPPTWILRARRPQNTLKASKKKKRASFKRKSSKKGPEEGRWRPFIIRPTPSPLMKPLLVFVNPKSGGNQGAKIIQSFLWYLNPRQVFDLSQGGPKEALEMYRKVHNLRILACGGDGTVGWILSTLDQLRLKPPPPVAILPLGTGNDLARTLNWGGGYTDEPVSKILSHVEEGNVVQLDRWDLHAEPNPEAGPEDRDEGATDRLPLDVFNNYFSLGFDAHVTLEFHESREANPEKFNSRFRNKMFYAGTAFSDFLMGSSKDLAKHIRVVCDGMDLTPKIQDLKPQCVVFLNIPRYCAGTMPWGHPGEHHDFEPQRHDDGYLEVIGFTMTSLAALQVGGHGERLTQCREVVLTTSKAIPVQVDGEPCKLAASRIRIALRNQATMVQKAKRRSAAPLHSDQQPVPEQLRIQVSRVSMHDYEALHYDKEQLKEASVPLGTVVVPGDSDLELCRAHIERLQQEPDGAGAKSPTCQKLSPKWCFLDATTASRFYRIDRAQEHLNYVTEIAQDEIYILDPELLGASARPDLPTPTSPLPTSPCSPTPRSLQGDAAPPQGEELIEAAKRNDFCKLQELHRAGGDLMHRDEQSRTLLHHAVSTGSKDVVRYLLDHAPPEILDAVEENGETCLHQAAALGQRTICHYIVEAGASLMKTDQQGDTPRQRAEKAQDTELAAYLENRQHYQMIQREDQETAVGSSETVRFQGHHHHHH

In the case of `COc1ccccc1C(c1ccc(F)cc1)N1CCN(c2c(C#N)c(=O)n(C)c3ccc(Br)nc23)CC1` (single isomer, unassigned) [Example 13, 6-bromo-4-{4-[(4-fluorophenyl)(2-methoxyphenyl)methyl]piperazin-1-yl}-1-methyl-2-oxo-1,2-dihydro-1,5-naphthyridine-3-carbonitrile], the IC50 (in general, the concentration that gives 50% inhibition) in assay [1] (setting [3]) was over 240 µM.

In the case of `Cc1ccc(CN2CCN(c3c(C#N)c(=O)n(C)c4ccc(Cl)nc34)CC2)c(F)c1` [Example 423, 6-chloro-4-{4-[(2-fluoro-4-methylphenyl)methyl]piperazin-1-yl}-1-methyl-2-oxo-1,2-dihydro-1,5-naphthyridine-3-carbonitrile], the figures for the IC50 in assay [1] (setting [3]) and in assay [2] (setting [4]) were over 81 µM and 33 µM, respectively.

As for `Cc1ccc(CN2CCN(c3c(C#N)c(=O)n(C)c4ccc(Cl)nc34)CC2)cc1` [Example 386, 6-chloro-1-methyl-4-{4-[(4-methylphenyl)methyl]piperazin-1-yl}-2-oxo-1,2-dihydro-1,5-naphthyridine-3-carbonitrile], the IC50 in assay [1] (setting [3]) worked out at 190 µM; in assay [2] (setting [4]), 6.7 µM.

Turning to `Cc1cccc(CN2CCN(c3c(C#N)c(=O)n(C)c4ccc(Cl)nc34)CC2)c1O` [Example 391, 6-chloro-4-{4-[(2-hydroxy-3-methylphenyl)methyl]piperazin-1-yl}-1-methyl-2-oxo-1,2-dihydro-1,5-naphthyridine-3-carbonitrile], the IC50 in assay [1] (setting [3]) came to 36 µM; in assay [2] (setting [4]), 2.1 µM.

For `CC(c1ccc(F)cc1)N1CCN(c2c(C#N)c(=O)n(C)c3ccc(Cl)nc23)CC1` (single isomer, unassigned) [Example 387, 6-chloro-4-{4-[1-(4-fluorophenyl)ethyl]piperazin-1-yl}-1-methyl-2-oxo-1,2-dihydro-1,5-naphthyridine-3-carbonitrile], the figures for the IC50 in assay [1] (setting [3]) and in assay [2] (setting [4]) were over 240 µM and 1.6 µM, respectively.

Turning to `COc1cc(F)ccc1C(c1ccc(F)cc1)N1CCN(c2c(C#N)c(=O)n(C)c3ccc(Br)nc23)CC1` (single isomer, unassigned) [Example 17, 6-bromo-4-{4-[(4-fluoro-2-methoxyphenyl)(4-fluorophenyl)methyl]piperazin-1-yl}-1-methyl-2-oxo-1,2-dihydro-1,5-naphthyridine-3-carbonitrile], the values for the IC50 in assay [1] (setting [3]) and in assay [2] (setting [4]) were 180 µM and 9.4 µM, respectively.

Take `Cn1c(=O)c(C#N)c(N2CCN(Cc3cccc4ccccc34)CC2)c2nc(C#N)ccc21` [Example 404, 5-methyl-8-{4-[(naphthalen-1-yl)methyl]piperazin-1-yl}-6-oxo-5,6-dihydro-1,5-naphthyridine-2,7-dicarbonitrile]: the values for the IC50 in assay [1] (setting [3]) and in assay [2] (setting [4]) were 63 µM and 3.9 µM, respectively.

On to `COc1ccc2c(n1)c(N1CCN(C(c3ccc(F)cc3)c3ccc(F)cc3OC)CC1)c(C#N)c(=O)n2C` (racemic) [Example 412, 4-{4-[(4-fluoro-2-methoxyphenyl)(4-fluorophenyl)methyl]piperazin-1-yl}-6-methoxy-1-methyl-2-oxo-1,2-dihydro-1,5-naphthyridine-3-carbonitrile], for which, in assay [2] (setting [4]), the IC50 was 0.6 µM.

On to `C#CCn1c(=O)c([N+](=O)[O-])c(N2CCN(C(CC)c3ccc(F)cc3)CC2)c2nc(C#N)ccc21` (single isomer, unassigned) [Example 141, 8-{4-[1-(4-fluorophenyl)propyl]piperazin-1-yl}-7-nitro-6-oxo-5-(prop-2-yn-1-yl)-5,6-dihydro-1,5-naphthyridine-2-carbonitrile], for which the figures for the IC50 in assay [1] (setting [3]) and in assay [2] (setting [4]) were 8.9 µM and 1.4 µM, respectively.

Consider `Cn1c(=O)c(C#N)c(N2CCN(C(c3ccc(F)cc3)C3CCC3)CC2)c2nc(Cl)ccc21` (single isomer, unassigned) [Example 382, 6-chloro-4-{4-[cyclobutyl(4-fluorophenyl)methyl]piperazin-1-yl}-1-methyl-2-oxo-1,2-dihydro-1,5-naphthyridine-3-carbonitrile], for which the IC50 in assay [2] (setting [4]) is over 240 µM.

As for `C#CCn1c(=O)c([N+](=O)[O-])c(N2CCN(C(c3ccc(F)cc3)c3ccc(F)cc3O)CC2)c2nc(C#N)ccc21` (single isomer, unassigned) [Example 121, 8-(4-((4-fluoro-2-hydroxyphenyl)(4-fluorophenyl)methyl)piperazin-1-yl)-7-nitro-6-oxo-5-(prop-2-yn-1-yl)-5,6-dihydro-1,5-naphthyridine-2-carbonitrile], the IC50 in assay [1] (setting [3]) turned out to be 0.18 µM; in assay [2] (setting [4]) it was 0.055 µM.

Regarding `Cc1ccc(CN2CCN(c3c(C#N)c(=O)n(C)c4ccc(Br)nc34)CC2)c(O)c1` [Example 372, 6-bromo-4-{4-[(2-hydroxy-4-methylphenyl)methyl]piperazin-1-yl}-1-methyl-2-oxo-1,2-dihydro-1,5-naphthyridine-3-carbonitrile], the IC50 is 60 µM in assay [1] (setting [3]) and 8.8 µM in assay [2] (setting [4]).

For `Cn1c(=O)c([N+](=O)[O-])c(N2CCN(CC(O)c3ccc(F)cc3)CC2)c2nc(C#N)ccc21` (centres unmarked) [Example 36, 8-{4-[2-(4-fluorophenyl)-2-hydroxyethyl]piperazin-1-yl}-5-methyl-7-nitro-6-oxo-5,6-dihydro-1,5-naphthyridine-2-carbonitrile], the IC50 turned out to be 68 µM in assay [1] (setting [3]) and 18 µM in assay [2] (setting [4]).

As for `CCCCn1c(=O)c([N+](=O)[O-])c(N2CCN(C(c3ccccc3)c3ccccc3)CC2)c2ncccc21` [Example 177, 4-(4-benzhydrylpiperazin-1-yl)-1-butyl-3-nitro-1,5-naphthyridin-2(1H)-one], the IC50 in assay [2] (setting [4]) stood at 9.7 µM.

Turning to `Cn1c(=O)c(C#N)c(N2CCN(C(CC(C)(C)C)c3ccc(F)cc3)CC2)c2nc(Cl)ccc21` (single isomer, unassigned) [Example 378, 6-chloro-4-{4-[1-(4-fluorophenyl)-3,3-dimethylbutyl]piperazin-1-yl}-1-methyl-2-oxo-1,2-dihydro-1,5-naphthyridine-3-carbonitrile], in assay [2] (setting [4]), the IC50 was over 240 µM.

Consider `COc1cc(F)ccc1C(c1ccc(F)cc1)N1CCN(c2c(C#N)c(=O)n(C)c3ccc(C#N)nc23)CC1` (single isomer, unassigned) [Example 406, 8-{4-[(4-fluoro-2-methoxyphenyl)(4-fluorophenyl)methyl]piperazin-1-yl}-5-methy-6-oxo-5,6-dihydro-L5-naphthyridine-2,7-dicarbonitrile], for which the IC50 in assay [2] (setting [4]) was 3.1 µM.

In the case of `CC(c1ccc(F)cc1)N1CCN(c2c(C#N)c(=O)n(C)c3ccc(Cl)nc23)CC1` (single isomer, unassigned) [Example 388, 6-chloro-4-{4-[1-(4-fluorophenyl)ethyl]piperazin-1-yl}-1-methyl-2-oxo-1,2-dihydro-1,5-naphthyridine-3-carbonitrile], the IC50 was over 240 µM in assay [1] (setting [3]) and 130 µM in assay [2] (setting [4]).

For the compound `COc1cc(C#N)ccc1CN1CCN(c2c(C#N)c(=O)n(C)c3ccc(Cl)nc23)CC1` [Example 424, 6-chloro-4-{4-[(4-cyano-2-methoxyphenyl)methyl]piperazin-1-yl}-1-methyl-2-oxo-1,2-dihydro-1,5-naphthyridine-3-carbonitrile], the IC50 was over 240 µM in assay [1] (setting [3]) and 27 µM in assay [2] (setting [4]).

Consider `Cn1c(=O)c(C#N)c(N2CCN(C(c3ccc(F)cc3)C3CCC3)CC2)c2nc(Cl)ccc21` (single isomer, unassigned) [Example 383, 6-chloro-4-{4-[cyclobutyl(4-fluorophenyl)methyl]piperazin-1-yl}-1-methyl-2-oxo-1,2-dihydro-1,5-naphthyridine-3-carbonitrile], for which the IC50 in assay [2] (setting [4]) is over 2.4 µM.

In the case of `Cc1ccc2c(n1)c(N1CCN(Cc3cccc(Cl)c3O)CC1)c(C#N)c(=O)n2C` [Example 389, 4-{4-[(3-chloro-2-hydroxyphenyl)methyl]piperazin-1-yl}-1,6-dimethyl-2-oxo-1,2-dihydro-1,5-naphthyridine-3-carbonitrile], the concentration for half-maximal inhibition (IC50) in assay [1] (setting [3]) turned out to be 130 µM; in assay [2] (setting [4]) it was 9.4 µM.

For the compound `C#CCn1c(=O)c([N+](=O)[O-])c(N2CCN(C(C)c3ccc(F)cc3)CC2)c2nc(C#N)ccc21` (single isomer, unassigned) [Example 137, 8-(4-(1-(4-fluorophenyl)ethyl)piperazin-1-yl)-7-nitro-6-oxo-5-(prop-2-yn-1-yl)-5,6-dihydro-1,5-naphthyridine-2-carbonitrile], the IC50 stood at 4.8 µM in assay [1] (DGKζ IC50, detergent/lipid micelle substrate) and 0.85 µM in assay [2] (DGKζ LIPGLO IC50, extruded liposome substrate).

As to `Cn1c(=O)c(C#N)c(N2CCN(C(CC(C)(C)C)c3ccc(F)cc3)CC2)c2nc(Cl)ccc21` (single isomer, unassigned) [Example 377, 6-chloro-4-{4-[1-(4-fluorophenyl)-3,3-dimethylbutyl]piperazin-1-yl}-1-methyl-2-oxo-1,2-dihydro-1,5-naphthyridine-3-carbonitrile], in assay [2] (setting [4]), the IC50 turned out to be 130 µM.

Regarding `Cn1c(=O)c([N+](=O)[O-])c(N2CCN(Cc3cccc4ccccc34)CC2)c2nc(C#N)ccc21` [Example 415, 5-methyl-8-{4-[(naphthalen-1-yl)methyl]piperazin-1-yl}-7-nitro-6-oxo-5,6-dihydro-1,5-naphthyridine-2-carbonitrile], the IC50 in assay [2] (setting [4]) stood at 0.66 µM.

Consider `COc1cc(F)ccc1C(c1ccc(F)cc1)N1CCN(c2c(C#N)c(=O)n(C)c3ccc(C#N)nc23)CC1` (single isomer, unassigned) [Example 407, 8-{4-[(4-fluoro-2-methoxyphenyl)(4-fluorophenyl)methyl]piperazin-1-yl}-5-methy-6-oxo-5,6-dihydro-L5-naphthyridine-2,7-dicarbonitrile], for which the IC50 in assay [2] (setting [4]) was 0.45 µM.
